# In patent US20130096067A1, “DROSOPHILA TUMOR STEM CELL MODEL AND USES THEREOF” (priority 2011, published 2013):
# Entries after “also recorded” stand apart in the source; their conditions may differ. Structures can show the parent of a compound that is named as a salt. Where two headings read alike, the source gives them in different places. Numbered stars: 1 amine (or outer) side, 2 acyl side, 3 side chain; on linkers, the order of the positions; unused ones are H or OH. Bridge positions count the residues as written; N and C are the ends. Square brackets hold non-standard residues; d marks the D form. Peptide text beside a SMILES is read from it. I, II: the chains in the order shown. Actinocin(9to1) = Cc1c2oc3c(C)ccc(C(=O)[*:1])c3nc-2c(C(=O)[*:2])c(N)c1=O; NMeV = CN[C@H](C(=O)O)C(C)C; Sar = CNCC(=O)O
# Key:
# [1] = tested on: Raf-1^gof intestinal tumors; settings: for Fold: luciferase relative to DMSO, fed three consecutive days in vials; for Log2 (fold) (luciferase activity, log2 of the fold difference relative to DMSO controls) / Fold (luciferase activity, fold difference relative to DMSO controls): screen of 480 ICCB compounds in vials, compounds fed to flies with one-day old Raf-1^gof tumors, esg-Gal4 luciferase
# [2] = tested on: Raf-1^gof intestinal tumors; test: Luciferase screen of FDA-approved (NCI) drugs in 96-well plates, flies with Raf-1^gof intestinal tumors; format: in vivo, Drosophila
# [3] = tested on: Raf-1^gof tumor cells; test: esg-Gal4 luciferase assay in whole-fly lysates of control and drug-treated flies (validation and replicate assays); format: in vivo, Drosophila
# Method: (§1) Primary screening drugs were provided by the Harvard Institute for Chemistry and Cell Biology (ICCB; 480 known bioactives library), and the National Cancer Institute (NCI) Drug Therapeutics Program (library of 88 FDA-approved oncology drugs). Secondary assays were conducted with freshly prepared 10 mM stocks that were diluted 1:100 in fly food, giving a final concentration of 100 μM.
# (§2) Drugs were dissolved in 100% DMSO. Drugs were mixed 1:100 with molten fly food at 37° C. and then aliquoted to either 5 mL tubes or 1 mL wells of a 96-well plate.
# Flies were anesthetized and transferred in pools of 3 to 96-well plates containing 100 μL of glo lysis buffer (Promega E2661) and homogenized with a multiple homogenizer (Burkard Scientific BS00253) for 3-5 minutes. The plates were then centrifuged for 5 minutes at 4,000 rpm, and the lysates were then transferred to new 96-well “master” plates. Firefly luciferase assays were conducted with 20 μL of lysate as specified by Promega. Luminescence was counted using the Molecular Devices Analyst GT plate reader.
# To exploit the TSC model for in vivo chemical screens, a high-throughput method was developed to track tumor growth, using a luciferase reporter assay instead of the conventional method of visualizing tumors with GFP. […] The esg-Gal4 driver was employed to express luciferase in the TSCs and the effects of various compounds were compared by measuring luciferase in homogenates of control and drug-treated flies.
# [4] = tested on: Raf-1^gof TSCs; test: Visualization of Raf-1^gof tumors in dissected guts by esg-GFP and Delta staining; format: in vivo, Drosophila
# Method: Samples were incubated 1 hour in 5% NDS blocking solution, overnight in primary antibody, 1.5 hours in secondary antibody and 6 minutes in DAPI. They were rinsed and washed between steps in PBS containing 0.1% Triton X-100. Finally they were placed in mounting media (Vectashield) and mounted for microscopy. Images were taken with a Leica TCS SP2 confocal microscope.
# as §1, §2
# Control flies were treated with DMSO.
# Flies were treated with DMSO alone as a control.
# [5] = tested on: JNK signaling; test: puc-LacZ reporter for JNK signaling in wild-type guts; format: in vivo, Drosophila; settings: EC cells
# Method: (§3) Flies were treated with DMSO alone as a control. […].
# (§4) For example, subjecting the fly intestine to the detergent dextran sulfate sodium (DSS) or to pathogen infection, induces ECs to activate the JNK stress-related pathway and to express IL-6 related cytokines (Unpaireds/Upds) (Jiang et al., 2009; Buchon et al., 2009; Apidianakis et al., 2009). The Upds activate JAK-STAT signaling in the ISCs, driving them to overproliferate. To determine if these same pathways are activated in response to FDA anti-cancer drugs, the puc-lacZ reporter was used to monitor JNK signaling, and a Gal-4 enhancer trap to monitor expression of Upd-3, the Upd cytokine preferentially expressed in the gut in response to injury (Jiang et al., 2009).
# [6] = tested on: JAK-STAT signaling; test: upd3-GFP reporter for JAK-STAT signaling in wild-type guts; format: in vivo, Drosophila; settings: EC cells
# Method: as §3, §4
# [7] = Table 3 summary of hits, Screen ICCB
# [8] = assessed three days later, averaged from multiple wells
# [9] = average of Day 3 and Day 6 fold
# [10] = log2 of the Day 3 fold difference in luciferase relative to DMSO controls
# [11] = luciferase activity relative to DMSO controls, single dose of drug for three days, 96-well plates
# [12] = six-day protocol: single dose for three days, then another dose for three more days
# [13] = esg-GFP in dissected guts, DMSO control
Compound,"Fold [1, 7]","Log2 (fold) (luciferase activity, log2 of the fold difference relative to DMSO controls) ([1]; assessed three days later)","Fold (luciferase activity, fold difference relative to DMSO controls) [1, 8]","Avg (3 + 6) [2, 9]","Log2 (fold) [2, 10]","Day 3 Fold [2, 11]","Day 6 Fold [2, 12]",also measured
CC[C@]1(O)C[C@@H]2CN(CCc3c([nH]c4ccccc34)[C@@](C(=O)OC)(c3cc4c(cc3OC)N(C)[C@H]3[C@@](O)(C(=O)OC)[C@H](OC(C)=O)[C@]5(CC)C=CCN6CC[C@]43[C@@H]65)C2)C1 [Vinblastine sulfate],0.204 fold,−2.290,0.204,0.158 fold,−2.445,0.184 fold,0.131 fold,–
COc1cc2c(c(OC)c1OC)-c1ccc(OC)c(=O)cc1[C@@H](NC(C)=O)CC2 [colchicine],–,–,–,–,–,–,–,effect on luciferase activity ([3]; in vivo): steep drop in luciferase activity; loss of luciferase activity ([3]; in vivo): about 80%; effect on Raf-1^gof tumor cells / tumor growth ([4]; in vivo): eliminated virtually all of the tumor cells; also recorded: eliminates virtually all of the Raf-1^gof tumor cells; also recorded: virtually all of the tumor cells were lost
CN(Cc1cnc2nc(N)nc(N)c2n1)c1ccc(C(=O)N[C@@H](CCC(=O)O)C(=O)O)cc1 [Methotrexate],0.160 fold,−2.648,0.160,0.094 fold,−3.231,0.107 fold,0.081 fold,expression of puc-lacZ reporter (JNK signaling) [5]: no effect on the expression of any of the reporters; expression of puc-lacZ reporter (JNK signaling) ([5]; listed as methotrexate): expressed neither reporter; expression of upd3-GFP / Upd-3 reporter (JAK-STAT signaling) [6]: no effect on the expression of any of the reporters; expression of upd3-GFP / Upd-3 reporter (JAK-STAT signaling) ([6]; listed as methotrexate): expressed neither reporter
CO[C@@]12[C@H](COC(N)=O)C3=C(C(=O)C(C)=C(N)C3=O)N1C[C@@H]1N[C@@H]12 [Mitomycin C],0.470 fold,−1.088,0.470,0.204 fold,–,–,–,"Day 3 Fold ([2]; po, 72 h): 0.279 fold; Log2 (fold) ([2]; po, 72 h): −1.842"
COc1cc([C@@H]2c3cc4c(cc3[C@@H](O[C@@H]3O[C@@H]5CO[C@@H](C)O[C@H]5[C@H](O)[C@H]3O)[C@H]3COC(=O)[C@H]23)OCO4)cc(OC)c1O [Etoposide],–,−0.532,0.691,0.817 fold,−0.134,0.911 fold,0.722 fold,–
CO[C@H]1C[C@@H]2CC[C@@H](C)[C@@](O)(O2)C(=O)C(=O)N2CCCC[C@H]2C(=O)O[C@H]([C@H](C)C[C@@H]2CC[C@@H](O)[C@H](OC)C2)CC(=O)[C@H](C)/C=C(\C)[C@@H](O)[C@@H](OC)C(=O)[C@H](C)C[C@H](C)/C=C/C=C/C=C/1C [Rapamycin],0.429 fold,−1.220,0.429,0.369 fold,−1.216,0.431 fold,0.308 fold,–
"Nc1ncnc2c1c(I)cn2[C@@H]1O[C@H](CO)[C@@H](O)[C@H]1O [5-iodotubercidin, reference compound]",0.530 fold,−0.917,0.530,–,–,–,–,"effect on Raf-1^gof tumor cells / tumor growth [4, 13]: reduced tumor growth"
Bleomycin,–,–,–,0.521 fold,0.060,1.043 fold,0.000 fold,expression of puc-lacZ reporter (JNK signaling) [5]: induced JNK and JAK-STAT signaling; expression of upd3-GFP / Upd-3 reporter (JAK-STAT signaling) [6]: induced JNK and JAK-STAT signaling; effect on Delta positive TSCs ([4]; Delta staining of dissected guts): failed to block TSCs
O=C1CCC(N2C(=O)c3ccccc3C2=O)C(=O)N1 (stereo not shown) [Thalidomide],–,−0.252,0.839,1.008 fold,0.136,1.099 fold,0.918 fold,–
"C[C@H](NC(=O)Cc1cc(F)cc(F)c1)C(=O)N[C@H]1N=C(c2ccccc2)c2ccccc2N(C)C1=O [Compound E, reference compound]",2.696 fold,–,–,–,–,–,–,"effect on luciferase activity ([3]; whole-animal extracts vs DMSO controls): augmented tumor growth and luciferase activity; Log2 (fold) of luciferase activity relative to DMSO controls ([1]; ICCB compounds fed in vials to flies with one-day old Raf-1^gof tumors, assessed three days later): 1.431; Fold (luciferase activity relative to DMSO controls) ([1]; ICCB compounds fed in vials to flies with one-day old Raf-1^gof tumors, assessed three days later, averaged from multiple wells): 2.696 fold; Log2 (fold) [1, 7]: 1.431; effect on Raf-1^gof tumor cells / tumor growth [4, 13]: augmented tumor growth; also recorded: increased tumor growth; also recorded: dramatic expansion of the tumor"
"Cc1c2oc3c(C)ccc(C(=O)N[C@@H]4C(=O)N[C@H](C(C)C)C(=O)N5CCC[C@H]5C(=O)N(C)CC(=O)N(C)[C@@H](C(C)C)C(=O)O[C@@H]4C)c3nc-2c(C(=O)N[C@@H]2C(=O)N[C@H](C(C)C)C(=O)N3CCC[C@H]3C(=O)N(C)CC(=O)N(C)[C@@H](C(C)C)C(=O)O[C@@H]2C)c(N)c1=O [Dactinomycin] (I: T[dV]P[Sar][NMeV] / II: T[dV]P[Sar][NMeV]; ester I:1-I:C, II:1-II:C; linker I:N-II:N via Actinocin(9to1))",0.438 fold,−1.192,0.438,0.119 fold,−3.068,0.119 fold,–,–
CCN(CC)CCCC(C)Nc1c2ccc(Cl)cc2nc2ccc(OC)cc12 (stereo not shown) [Acrichine],–,–,–,1.046 fold,−0.212,0.863 fold,1.229 fold,–
CC/C(=C(\c1ccccc1)c1ccc(OCCN(C)C)cc1)c1ccccc1 [Tamoxifen citrate],–,–,–,0.919 fold,−0.046,0.968 fold,0.869 fold,–
CN(N=O)C(=O)N[C@@H](C=O)[C@@H](O)[C@H](O)[C@H](O)CO [Streptozocin],–,–,–,–,–,–,–,Avg (3 + 6) ([2]; in vivo): 0.943 fold; Day 3 Fold ([2]; in vivo): 1.030 fold; Day 6 Fold ([2]; in vivo): 0.856 fold; Log2 (fold) ([2]; in vivo): 0.043
"C1CN1c1nc(N2CC2)nc(N2CC2)n1 [Triethylenemelamine (TEM), Triethylenemelamine]",–,–,–,–,–,–,–,Avg (3 + 6) ([2]; in vivo): 0.301 fold; Day 3 Fold ([2]; in vivo): 0.349 fold; Day 6 Fold ([2]; in vivo): 0.253 fold; Log2 (fold) ([2]; in vivo): −1.519
C/C(=C\c1csc(C)n1)[C@@H]1C[C@@H]2O[C@]2(C)CCC[C@H](C)[C@H](O)[C@@H](C)C(=O)C(C)(C)[C@@H](O)CC(=O)N1 [Ixabepilone],–,–,–,0.765 fold,−0.009,0.994 fold,0.536 fold,–
Cc1nc(Nc2ncc(C(=O)Nc3c(C)cccc3Cl)s2)cc(N2CCN(CCO)CC2)n1 [Dasatinib],–,–,–,1.085 fold,0.521,1.435 fold,0.736 fold,–
Nc1ncn([C@H]2C[C@H](O)[C@@H](CO)O2)c(=O)n1 [Decitabine],–,–,–,0.569 fold,−1.077,0.474 fold,0.663 fold,–
O=NN(CCCl)C(=O)NCCCl [Carmustine],–,–,–,0.496 fold,–,–,–,"Day 3 Fold ([2]; po, 72 h): 0.565 fold; Log2 (fold) ([2]; po, 72 h): −0.823"
